According to patent US20110313672A1, “CELLULAR ANTIOXIDANT ACTIVITY (CAA) ASSAY” (CORNELL UNIVERSITY, priority 2007, published 2011):
“And” between values parts separate entries of the source, which are not always exact repeats. Identical values can stand only once. “Also recorded” adds a separate entry of the source. Like-named read-outs stand apart in the source and are kept apart here.

Key:
HepG2 cells [1] = assay: Cellular antioxidant activity (CAA) assay: inhibition of peroxyl radical-induced DCFH oxidation; assay type: cell-based, human; settings: for CAA value / percent of the antioxidant activity of quercetin in the CAA assay: Example 1; for CAA value: pure compounds, EC50 converted to quercetin equivalents; for percent of the antioxidant activity of quercetin in the CAA assay: summary statement
Method: Cells (e.g., human hepatocellular carcinoma cells; HepG2) are seeded at a density of e.g., 6×10^4/well on a 96-well microplate in 100 μL growth medium/well. It is preferred that only the inside wells of e.g., a 96-well microplate are used for the assay, since the outer wells have increased variation compared to that of the inner wells. Twenty-four hours after seeding the growth medium is removed and the wells are washed with PBS. Triplicate wells are treated for 1 h with 100 μL of a test compound (e.g., pure phytochemical compounds or fruit extracts) plus 25 μM DCFH-DA dissolved in treatment medium.
600 μM ABAP is then applied to the cells in 100 μL HBSS and the 96-well microplate is placed into a plate reader e.g., Fluoroskan Ascent FL plate-reader (ThermoLabsystems, Franklin, Mass.) at 37° C. Emission at 538 nm is measured with excitation at 485 nm, for example every 5 min for 1 h. Each plate should include triplicate control and blank wells: control wells contain cells treated with DCFH-DA and oxidant; blank wells contain cells treated with dye and HBSS without oxidant.
A test compound is assayed in multiple wells of e.g., a 96-well cell culture plate. Some wells are washed with 100 μL of phosphate-buffered saline (PBS) prior to the addition of ABAP, while other wells were not washed prior to the addition of ABAP. It was noted that the measured antioxidant activity of some fruit extracts (e.g., blueberries) was different when a PBS wash was used compared to when there was no PBS wash (see Table 2; FIGS. 3 and 4). This is likely due to non-specific binding of certain antioxidant compounds to the outer membrane, or a reduced uptake of the compound, thus the ratio of antioxidant activity values obtained with a PBS wash compared to a non-PBS wash indicates the bioavailability of the test compound. In order to accurately measure the intracellular antioxidant activity of a test compound, a PBS wash prior to the addition of a peroxyl initiator (e.g, ABAP) is necessary. The values obtained for cells assayed using a PBS wash should be compared to values obtained for the same cells assayed without a PBS wash. One of skill in the art can plan and perform experiments on a test compound in the presence and absence of a PBS wash, in order to accurately assess the intracellular antioxidant capacity of the test compound.
After blank subtraction from the fluorescence readings, the area under the curve of fluorescence versus time is integrated to calculate the cellular antioxidant activity (CAA) value at each concentration of pure phytochemical compound or fruit extract as follows:
where ∫SA is the integrated area under the sample fluorescence versus time curve and ∫CA is the integrated area from the control curve. The median effective dose (EC50) was determined for the pure phytochemical compounds and fruit extracts from the median effect plot of log (fa/fu) vs. log (dose), where fa is the fraction affected and fu is the fraction unaffected by the treatment. To quantify intra-experimental variation, the EC50 values are stated as mean±SD for triplicate sets of data obtained from the same experiment. Inter-experimental variation is obtained for some representative pure phytochemical compounds and fruit extracts by averaging the fluorescence values from triplicate wells in each trial to obtain one EC50 value per experiment and calculating the mean±SD for at least four trials. In each experiment, a standard is used, for example quecetin, thus permitting the cellular antioxidant activities for a test compounds to be expressed as μmol quercetin equivalents (QE)/100 μmol compound. Fruit extracts are expressed as μmol QE/100 g fruit. In order to compare the antioxidant quality of different fruits, cellular antioxidant activity (CAA) is also calculated as μmol QE/100 μmol total phenolics.
Human hepatocellular carcinoma HepG2 cells were seeded at a density of 6×10^4/well on a 96-well microplate in 100 μL growth medium/well. […]

HepG2 cells [2] = assay: in vitro; settings: human, 24 h
Method: (§1) Briefly, HepG2 cells are seeded at 4×10^4/well on a 96-well plate in 100 μL growth medium and incubated for 24 h at 37° C. The medium is removed and the cells are washed with PBS. Treatments of fruit extracts or antioxidant compounds in 100 μL treatment medium (Williams' Medium E supplemented with 2 mM L-glutamine and 10 mM Hepes) are applied to the cells and the plates are incubated at 37° C. for 24 h. The treatment medium is removed and the cells are washed with PBS. A volume of 50 μL/well methylene blue staining solution (98% HBSS, 0.67% glutaraldehyde, 0.6% methylene blue) is applied to each well and the plate is incubated at 37° C. for 1 h.
(§2) Excess dye is removed by immersing the plate in fresh deionized water until the water appears clear. The excess water should be tapped out of the wells and the plate allowed to air-dry briefly before addition of 100 μL elution solution (49% PBS, 50% ethanol, 1% acetic acid) to each well. The microplate is then placed on a bench-top shaker for 20 minutes to allow uniform elution. The absorbance is read at 570 nm with blank subtraction using, for example a MRX II DYNEX spectrophotometer (DYNEX Inc., Chantilly, Va.). Concentrations of pure compounds or fruit extracts that decrease the absorbance by more than 10% when compared to the control are considered to be cytotoxic.
(§3) Cytotoxicity was measured using the method of Oliver et al. (31) with modifications by our laboratory (32). […] The medium was removed and the cells were washed with PBS. Treatments of fruit extracts or antioxidant compounds in 100 μL treatment medium (Williams' Medium E supplemented with 2 mM L-glutamine and 10 mM Hepes) were applied to the cells and the plates were incubated at 37° C. for 24 h. The treatment medium was removed and the cells were washed with PBS. A volume of 50 μL/well methylene blue staining solution (98% HBSS, 0.67% glutaraldehyde, 0.6% methylene blue) was applied to each well and the plate was incubated at 37° C. for 1 h. The dye was removed and the plate was immersed in fresh deionized water three times, or until the water was clear. The water was tapped out of the wells and the plate was allowed to air-dry briefly before 100 μL elution solution (49% PBS, 50% ethanol, 1% acetic acid) was added to each well. The microplate was placed on a bench-top shaker for 20 minutes to allow uniform elution. The absorbance was read at 570 nm with blank subtraction using the MRX II DYNEX spectrophotometer (DYNEX Inc., Chantilly, Va.). Concentrations of pure compounds or fruit extracts that decreased the absorbance by more than 10% when compared to the control were considered to be cytotoxic.
(§4) The median cytotoxic concentration (CC50) was calculated for each fruit.
(§5) Briefly, HepG2 cells were seeded at 4×10^4/well on a 96-well plate in 100 μL growth medium and incubated for 24 h at 37° C. The medium was removed, and the cells were washed with PBS. Flavonoids in 100 μL growth medium were applied to the cells, and the plates were incubated at 37° C. for 24 h. The medium was removed, and the cells were washed with PBS before a volume of 50 μL/well methylene blue staining solution (98% HBSS, 0.67% glutaraldehyde, 0.6% methylene blue) was applied to each well, and the plate was incubated at 37° C. for 1 h. The dye was removed, and the plate was immersed in fresh deionized water until the water was clear. The water was tapped out of the wells, and the plate was allowed to air-dry briefly before 100 μL of elution solution (49% PBS, 50% ethanol, 1% acetic acid) was added to each well. The microplate was placed on a benchtop shaker for 20 min to allow uniform
(§6) elution. The absorbance was read at 570 nm with blank subtraction using the MRX II Dynex spectrophotometer (Dynex Inc., Chantilly, Va.). The median cytotoxic concentration (CC50) was calculated for each flavonoid.

[3] = Cytotoxicity toward HepG2 cells (methylene blue staining); settings: human
Method: as §1, §2, §3, §4, §5, §6

[4] = Oxygen radical absorbance capacity (ORAC) assay; settings: Example 3; flavonoids; mean ± SD, n ≧ 3
Method: The peroxyl radical scavenging efficacy of selected fruits was measured using the ORAC assay (Prior, R. L., et al (2003) J. Agric. Food Chem. 51:3273-3279). Briefly, 20 μL of blank, Trolox standard, or fruit extracts in 75 mM potassium phosphate buffer, pH 7.4 (working buffer), was added to triplicate wells in a black, clear-bottom, 96-well microplate. The triplicate samples were distributed throughout the microplate and were not placed side-by-side, to avoid any effects on readings due to location. In addition, no outside wells were used, as use of those wells results in greater variation. A volume of 200 μL of 0.96 μM fluorescein in working buffer was added to each well and incubated at 37° C. for 20 min, with intermittent shaking, before the addition of 20 μL of freshly prepared 119 mM ABAP in working buffer using a 12-channel pipetter. The microplate was immediately inserted into a Fluoroskan Ascent FL plate reader (ThermoLabsystems) at 37° C. The decay of fluorescence at 538 nm was measured with excitation at 485 nm every 4.5 min for 2.5 h. The areas under the fluorescence versus time curve for the samples minus the area under the curve for the blank were calculated and compared to a standard curve of the areas under the curve for 6.25, 12.5, 25, and 50 μM Trolox standards minus the area under the curve for blank. ORAC values were expressed as mean micromoles of Trolox equivalents (TE) per 100 g of fruit±SD for triplicate data from one experiment.
ORAC measurements were performed as described herein in Example 2.

[5] = Homo sapiens, HepG2, Example 1, Table 1, PBS wash, pure phytochemical compounds, mean ± SD, n=3, read-out: EC50 for inhibition of peroxyl radical-induced DCFH oxidation
[6] = Homo sapiens, HepG2, Example 1, Table 1, no PBS wash, pure phytochemical compounds, mean ± SD, n=3, read-out: EC50 for inhibition of peroxyl radical-induced DCFH oxidation
[7] = CAA assay, either protocol or protocol not specified
[8] = Example 3, Table 7, PBS wash, flavonoids, mean ± SD, n=3
[9] = Example 3, Table 7, no PBS wash, flavonoids, mean ± SD, n=3

Compound	CAA value (HepG2 cells [1]; no PBS wash) [μmol QE/100 μmol]	percent of the antioxidant activity of quercetin in the CAA assay (HepG2 cells [1])	EC50 (HepG2 cells [1]; [5]) [µM]	EC50 (HepG2 cells [1]; [6]) [µM]	Cytotoxicity (cytotoxic concentration) (HepG2 cells [2]) [µM]	cellular antioxidant activity, result in words (HepG2 cells [1]; [7])	EC50 (HepG2 cells [1]; [8])	EC50 (HepG2 cells [1]; [9])	ORAC [4]	further results
O=C(O)/C=C/c1ccc(O)c(O)c1 [Caffeic acid, caffeic acid]	5.59±0.70	less than ten percent	525 ± 38	95.3 ± 15.3	>500	–	–	–	–	–
O=C(CCc1ccc(O)cc1)c1c(O)cc(O)cc1O [Phloretin, phloretin]	–	–	> 25	> 25	25	–	–	–	–	cellular antioxidant activity, result in words (HepG2 cells [1]; no PBS wash protocol): activity only at doses much higher than their cytotoxic concentrations
O=c1c(-c2ccc(O)cc2)coc2cc(O)ccc12 [daidzein]	–	–	–	–	–	no cellular antioxidant activity	no activity	no activity	8.52 ± 2.11 cde μmol of TE/μmol	CC50 at 24 h ([3]; HepG2 cells): > 100 µM
O=c1cc(-c2ccccc2)oc2cc(O)cc(O)c12 [chrysin]	–	–	–	–	–	no activity	no activity	no activity	–	CC50 at 24 h [3]: > 200 µM
(+)-catechin	2.03±0.24	less than ten percent	–	–	–	low or no cellular antioxidant activity; also recorded: low CAA	–	–	12.4±4.0 μmol of TE/μmol and 12.4 ± 4.0 ab μmol of TE/μmol	EC50 (HepG2 cells [1]; Example 1, Table 1, PBS wash, pure phytochemical compounds, mean ± SD, n=3, read-out: EC50 for inhibition of peroxyl radical-induced DCFH oxidation): > 500 µM; EC50 (HepG2 cells [1]; Example 1, Table 1, no PBS wash, pure phytochemical compounds, mean ± SD, n=3, read-out: EC50 for inhibition of peroxyl radical-induced DCFH oxidation): 292 ± 32 µM; EC50 (HepG2 cells [1]; Example 3, Table 7, PBS wash, flavonoids, mean ± SD, n=3, read-out: EC50): > 800 µM; CAA (HepG2 cells [1]; Example 3, Table 7, no PBS wash): 2.5 ± 0.1 μmol of QE/100 μmol; EC50 (HepG2 cells [1]; Example 3, text, no PBS wash, read-out: EC50): 360 ± 17 µM; cellular antioxidant activity, result in words (HepG2 cells [1]; PBS wash protocol): very low, unquantifiable, activity; cellular antioxidant activity, result in words (HepG2 cells [1]; PBS wash protocol, listed as catechin): low and low activity at the concentrations tested
O=C(O)c1cc(O)c(O)c(O)c1 [Gallic acid]	9.08±0.95	less than ten percent	335 ± 26	65.4 ± 7.3	>500	–	–	–	–	EC50 (HepG2 cells [1]; Homo sapiens, HepG2, Table 2, no PBS wash, mean ± SD over the trials, read-out: Interexperimental EC50): 64.3 ± 10.7 µM; EC50 (HepG2 cells [1]; Homo sapiens, HepG2, Table 2, no PBS wash, one line per trial (trials 1-5), n=3, read-out: Intraexperimental EC50): 65.4 ± 7.3 µM; EC50 (HepG2 cells [1]; Homo sapiens, HepG2, Table 3, PBS wash, mean ± SD over the trials, read-out: Interexperimental EC50): 318 ± 36 µM; EC50 (HepG2 cells [1]; Homo sapiens, HepG2, Table 3, PBS wash, one line per trial (trials 1-5), n=3, read-out: Intraexperimental EC50): 289 ± 12 µM
O=C1O[C@H]([C@@H](O)CO)C(O)=C1O [Ascorbic acid, ascorbic acid]	8.84±1.18	less than ten percent	> 500	67.5 ± 9.4	>500	–	–	–	–	cellular antioxidant activity, result in words (HepG2 cells [1]; PBS wash protocol): low
O=c1cc(-c2ccc(O)cc2)oc2cc(O)cc(O)c12 [apigenin]	–	–	–	–	–	no cellular antioxidant activity; also recorded: no CAA	no activity	no activity	10.7 ± 1.5 bc μmol of TE/μmol	CC50 at 24 h [3]: > 80 µM
C[C@@H]1O[C@@H](OC[C@H]2O[C@@H](Oc3c(-c4ccc(O)c(O)c4)oc4cc(O)cc(O)c4c3=O)[C@H](O)[C@@H](O)[C@@H]2O)[C@H](O)[C@H](O)[C@H]1O [rutin]	–	–	–	–	–	no activity	no activity	no activity	–	CC50 at 24 h ([3]; HepG2 cells): > 200 µM
